# Assay results: patent publication US11827657B2, “Boron containing pyrazole compounds, compositions comprising them, methods and uses thereof” (BOEHRINGER INGELHEIM ANIMAL HEALTH USA INC., priority 2020, dated 2023)
# Biological target: JAK1 (Homo sapiens, UniProt P23458)
# Assay: Biochemical Kinase Assay (JAK), 33P-ATP filter-binding
# Details: Biochemical Kinase Inhibition Assay; potency level of IC50; read-out: JAK1 (range)
# Description: Biochemical Kinase Assay Protocol (JAK) • Reagent: Base Reaction buffer; 20 mM Hepes (pH 7.5), 10 mM MgCl2, 1 mM EGTA, 0.02% Brij™ 35, 0.02 mg/ml BSA, 0.1 mM Na3VO4, 2 mM DTT, 1% DMSO, where required cofactors were added individually to each kinase reaction.
# Reaction Procedure: • 1. Prepared indicated substrate in freshly prepared Base Reaction Buffer • 2. Delivered any required cofactors to the substrate solution above • 3. Delivered indicated kinase into the substrate solution and gently mix • 4. Delivered compounds in DMSO into the kinase reaction mixture by Acoustic technology (Echo550; nanoliter range), incubated for 20 minutes at room temperature • 5. Delivered 33P-ATP into the reaction mixture to initiate the reaction. • 6. Incubated kinase reaction for 2 hours at room temperature • 7. Reactions were spotted onto P81 ion exchange paper • 8. Detected kinase activity by filter-binding method.
# Compounds according to the present invention were tested in the Biochemical Kinase Assay Protocol. The results are provided below in Table 1, wherein the potency levels A, B, and C in the columns labeled JAK1 (range) correspond to IC50 as follows: A<10 nM; B=10-50 nM and C>50 nM. The Example Number entries formatted ##a represent stereoisomer one and entries formatted ##b represent stereoisomer two.
# JAK1, sequence (P23458 whole entry, species assumed): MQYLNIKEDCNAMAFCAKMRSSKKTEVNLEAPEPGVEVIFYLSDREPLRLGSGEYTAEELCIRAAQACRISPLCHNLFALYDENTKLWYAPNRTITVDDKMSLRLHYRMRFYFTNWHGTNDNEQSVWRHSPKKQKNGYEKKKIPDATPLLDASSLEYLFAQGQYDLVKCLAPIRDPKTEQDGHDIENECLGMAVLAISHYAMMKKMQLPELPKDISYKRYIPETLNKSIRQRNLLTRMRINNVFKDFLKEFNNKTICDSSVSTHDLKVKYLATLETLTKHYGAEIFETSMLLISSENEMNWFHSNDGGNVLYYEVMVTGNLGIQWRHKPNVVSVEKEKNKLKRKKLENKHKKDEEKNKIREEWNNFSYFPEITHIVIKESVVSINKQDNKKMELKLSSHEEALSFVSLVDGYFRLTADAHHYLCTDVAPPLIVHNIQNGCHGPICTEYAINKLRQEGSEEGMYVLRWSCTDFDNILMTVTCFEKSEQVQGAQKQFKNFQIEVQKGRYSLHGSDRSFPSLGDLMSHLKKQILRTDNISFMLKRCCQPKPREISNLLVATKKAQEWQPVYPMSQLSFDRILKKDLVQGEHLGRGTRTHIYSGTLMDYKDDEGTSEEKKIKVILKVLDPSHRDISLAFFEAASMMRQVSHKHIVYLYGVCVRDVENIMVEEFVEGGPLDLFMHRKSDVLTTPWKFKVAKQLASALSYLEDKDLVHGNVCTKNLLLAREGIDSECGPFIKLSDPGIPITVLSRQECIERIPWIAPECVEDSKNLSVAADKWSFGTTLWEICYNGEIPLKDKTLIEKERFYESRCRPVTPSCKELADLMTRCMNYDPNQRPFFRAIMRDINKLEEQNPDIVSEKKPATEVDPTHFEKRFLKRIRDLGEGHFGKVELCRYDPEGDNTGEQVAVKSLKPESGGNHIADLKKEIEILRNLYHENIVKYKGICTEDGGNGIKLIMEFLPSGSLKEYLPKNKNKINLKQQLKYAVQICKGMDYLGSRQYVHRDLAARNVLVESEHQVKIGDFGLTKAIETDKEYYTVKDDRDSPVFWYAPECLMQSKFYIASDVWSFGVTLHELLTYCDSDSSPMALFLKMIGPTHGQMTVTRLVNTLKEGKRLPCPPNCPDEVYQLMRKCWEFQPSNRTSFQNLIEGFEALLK
row,Compound,IC50
1,"CC(C)C1=Cc2cc(Nc3nn([C@@H]4CCC[C@H]4C#N)cc3C(N)=O)ccc2OB1O (relative stereo) [Example 50, 1-(trans-2-cyanocyclopentyl)-3-[(2-hydroxy-3-isopropyl-1,2-benzoxaborinin-6-yl)amino]pyrazole-4-carboxamide]",< 10 nM
2,"N#C[C@@H]1CCOC[C@H]1n1cc(C(N)=O)c(Nc2ccc3c(c2F)C=CB(O)O3)n1 (relative stereo) [Example 54, 1-(trans-4-cyanotetrahydro-2H-pyran-3-yl)-3-[(5-fluoro-2-hydroxy-1,2-benzoxaborinin-6-yl)amino]pyrazole-4-carboxamide]",10 to 50 nM
3,"CCC1=Cc2cc(Nc3nn([C@@H]4COCC[C@H]4C#N)cc3C(N)=O)ccc2OB1O (relative stereo) [Example 56, 1-(trans-4-cyanotetrahydro-2H-pyran-3-yl)-3-[(3-ethyl-2-hydroxy-1,2-benzoxaborinin-6-yl)amino]pyrazole-4-carboxamide]",< 10 nM
4,"N#C[C@@H]1CCOC[C@H]1n1cc(C(N)=O)c(Nc2ccc3c(c2)C2CC2B(O)O3)n1 (relative stereo) [Example 57, 1-(trans-4-cyanotetrahydro-2H-pyran-3-yl)-3-[(2-hydroxy-1a,7b-dihydro-1H-cyclopropa[c][1,2]benzoxaborinin-6-yl)amino]pyrazole-4-carboxamide]",< 10 nM
5,"CC1=CB(O)Oc2ccc(Nc3nn(C4COCCC4C#N)cc3C(N)=O)cc21 (single isomer, unassigned) [Example 3a, 1-[trans-4-cyanotetrahydro-2H-pyran-3-yl]-3-[(2-hydroxy-4-methyl-1,2-benzoxaborinin-6-yl)amino]pyrazole-4-carboxamide (stereoisomerone)]",< 10 nM
6,"CC1=CB(O)Oc2ccc(Nc3nn(C4COCCC4C#N)cc3C(N)=O)cc21 (single isomer, unassigned) [Example 3b, 1-[trans-4-cyanotetrahydropyran-3-yl]-3-[(2-hydroxy-4-methyl-1,2-benzoxaborinin-6-yl)amino]pyrazole-4-carboxamide (stereoisomer two)]",10 to 50 nM
7,"Cc1cc(Nc2nn(C3COCCC3C#N)cc2C(N)=O)cc2c1B(O)OC2 (single isomer, unassigned) [Example 6a, 1-[trans-4-cyanotetrahydropyran-3-yl]-3-[(1-hydroxy-7-methyl-3H-2,1-benzoxaborol-5-yl)amino] pyrazole-4-carboxamide (stereoisomerone)]",< 10 nM
8,"Cc1cc(Nc2nn(C3COCCC3C#N)cc2C(N)=O)cc2c1B(O)OC2 (single isomer, unassigned) [Example 6b, 1-[trans-4-cyanotetrahydropyran-3-yl]-3-[(1-hydroxy-7-methyl-3H-2,1-benzoxaborol-5-yl)amino]pyrazole-4-carboxamide (stereoisomer two)]",10 to 50 nM

# Results, then the compound that gave them:
row,IC50,Compound
1,< 10 nM,"N#C[C@@H]1CCOC[C@H]1n1cc(C(N)=O)c(Nc2cc(Cl)c3c(c2)C=CB(O)O3)n1 (single isomer, unassigned) [Example 13a, 3-[(8-chloro-2-hydroxy-1,2-benzoxaborinin-6-yl)amino]-1-[trans-4-cyanotetrahydro-2H-pyran-3-yl]pyrazole-4-carboxamide]"
2,< 10 nM,"N#C[C@@H]1CCOC[C@H]1n1cc(C(N)=O)c(Nc2cc(Cl)c3c(c2)C=CB(O)O3)n1 (single isomer, unassigned) [Example 13b, 3-[(8-chloro-2-hydroxy-1,2-benzoxaborinin-6-yl)amino]-1-[trans-4-cyanotetrahydro-2H-pyran-3-yl]pyrazole-4-carboxamide]"
3,< 10 nM,"CC1=Cc2cc(Nc3nn([C@@H]4COCC[C@H]4C#N)cc3C(N)=O)cc(F)c2OB1O (single isomer, unassigned) [Example 14a, 1-[trans-4-cyanotetrahydro-2H-pyran-3-yl]-3-[(8-fluoro-2-hydroxy-3-methyl-1,2-benzoxaborinin-6-yl)amino]pyrazole-4-carboxamide]"
4,10 to 50 nM,"CC1=Cc2cc(Nc3nn([C@@H]4COCC[C@H]4C#N)cc3C(N)=O)cc(F)c2OB1O (single isomer, unassigned) [Example 14b, 1-[trans-4-cyanotetrahydro-2H-pyran-3-yl]-3-[(8-fluoro-2-hydroxy-3-methyl-1,2-benzoxaborinin-6-yl)amino]pyrazole-4-carboxamide]"
5,> 50 nM,"N#C[C@@H]1CCOC[C@H]1n1cc(C(N)=O)c(Nc2ccc3c(c2)B(O)OC3)n1 (single isomer, unassigned) [Example 16a, 1-(trans-4-cyanotetrahydro-2H-pyran-3-yl)-3-((1-hydroxy-1,3-dihydrobenzo[c][1,2]oxaborol-6-yl)amino)-1H-pyrazole-4-carboxamide]"
6,< 10 nM,"N#C[C@@H]1CCOC[C@H]1n1cc(C(N)=O)c(Nc2ccc3c(c2)B(O)OC3)n1 (single isomer, unassigned) [Example 16b, 1-(trans-4-cyanotetrahydro-2H-pyran-3-yl)-3-((1-hydroxy-1,3-dihydrobenzo[c][1,2]oxaborol-6-yl)amino)-1H-pyrazole-4-carboxamide]"
7,> 50 nM,"Cc1c(Nc2nn([C@@H]3COCC[C@H]3C#N)cc2C(N)=O)ccc2c1C=CB(O)O2 (single isomer, unassigned) [Example 17a, 1-[trans-4-cyanotetrahydro-2H-pyran-3-yl]-3-[(2-hydroxy-5-methyl-1,2-benzoxaborinin-6-yl)amino]pyrazole-4-carboxamide]"
8,> 50 nM,"Cc1c(Nc2nn([C@@H]3COCC[C@H]3C#N)cc2C(N)=O)ccc2c1C=CB(O)O2 (single isomer, unassigned) [Example 17b, 1-[trans-4-cyanotetrahydropyran-3-yl]-3-[(2-hydroxy-5-methyl-1,2-benzoxaborinin-6-yl)amino]pyrazole-4-carboxamide]"
9,< 10 nM,"CC1=C(C)c2cc(Nc3nn([C@@H]4COCC[C@H]4C#N)cc3C(N)=O)cc(C)c2OB1O (single isomer, unassigned) [Example 23a, 1-[trans-4-cyanotetrahydro-2H-pyran-3-yl]-3-[(2-hydroxy-3,4,8-trimethyl-1,2-benzoxaborinin-6-yl)amino]pyrazole-4-carboxamide]"
10,> 50 nM,"CC1=C(C)c2cc(Nc3nn([C@@H]4COCC[C@H]4C#N)cc3C(N)=O)cc(C)c2OB1O (single isomer, unassigned) [Example 23b, 1-[trans-4-cyanotetrahydro-2H-pyran-3-yl]-3-[(2-hydroxy-3,4,8-trimethyl-1,2-benzoxaborinin-6-yl)amino]pyrazole-4-carboxamide]"
11,10 to 50 nM,"Cc1cc(Nc2nn([C@@H]3COCC[C@H]3C#N)cc2C(N)=O)cc2c1OB(O)C=C2 (single isomer, unassigned) [Example 27a, 1-[trans-4-cyanotetrahydropyran-3-yl]-3-[(2-hydroxy-8-methyl-1,2-benzoxaborinin-6-yl)amino]pyrazole-4-carboxamide]"
12,< 10 nM,"Cc1cc(Nc2nn([C@@H]3COCC[C@H]3C#N)cc2C(N)=O)cc2c1OB(O)C=C2 (single isomer, unassigned) [Example 27b, 1-[trans-4-cyanotetrahydropyran-3-yl]-3-[(2-hydroxy-8-methyl-1,2-benzoxaborinin-6-yl)amino]pyrazole-4-carboxamide]"
13,> 50 nM,"N#C[C@@H]1CCOC[C@H]1n1cc(C(N)=O)c(Nc2cc3c(c(C(F)(F)F)c2)OB(O)C=C3)n1 (single isomer, unassigned) [Example 28a, 1-[trans-4-cyanotetrahydro-2H-pyran-3-yl]-3-[[2-hydroxy-8-(trifluoromethyl)-1,2-benzoxaborinin-6-yl]amino]pyrazole-4-carboxamide]"
14,< 10 nM,"N#C[C@@H]1CCOC[C@H]1n1cc(C(N)=O)c(Nc2cc3c(c(C(F)(F)F)c2)OB(O)C=C3)n1 (single isomer, unassigned) [Example 28b, 1-[trans-4-cyanotetrahydro-2H-pyran-3-yl]-3-[[2-hydroxy-8-(trifluoromethyl)-1,2-benzoxaborinin-6-yl]amino]pyrazole-4-carboxamide]"
15,> 50 nM,"CC(C)C1=CB(O)Oc2ccc(Nc3nn([C@@H]4COCC[C@H]4C#N)cc3C(N)=O)cc21 (single isomer, unassigned) [Example 30a, 1-[trans-4-cyanotetrahydro-2H-pyran-3-yl]-3-[(2-hydroxy-4-isopropyl-1,2-benzoxaborinin-6-yl)amino]pyrazole-4-carboxamide]"
16,< 10 nM,"CC(C)C1=CB(O)Oc2ccc(Nc3nn([C@@H]4COCC[C@H]4C#N)cc3C(N)=O)cc21 (single isomer, unassigned) [Example 30b, 1-[trans-4-cyanotetrahydro-2H-pyran-3-yl]-3-[(2-hydroxy-4-isopropyl-1,2-benzoxaborinin-6-yl)amino]pyrazole-4-carboxamide]"
17,< 10 nM,"CC1(C)OB(O)c2cc(Nc3nn([C@@H]4COCC[C@H]4C#N)cc3C(N)=O)ccc21 (single isomer, unassigned) [Example 36a, 1-[trans-4-cyanotetrahydro-2H-pyran-3-yl]-3-[(1-hydroxy-3,3-dimethyl-2,1-benzoxaborol-6-yl)amino]pyrazole-4-carboxamide]"
18,< 10 nM,"CC1(C)OB(O)c2cc(Nc3nn([C@@H]4COCC[C@H]4C#N)cc3C(N)=O)ccc21 (single isomer, unassigned) [Example 36b, 1-[trans-4-cyanotetrahydro-2H-pyran-3-yl]-3-[(1-hydroxy-3,3-dimethyl-2,1-benzoxaborol-6-yl)amino]pyrazole-4-carboxamide]"
